The values that follow come from publication PMC12154214, “Bioactive Peptides from Sodium Caseinate Hydrolysate with High Oral Absorption Regulate Blood Glucose in Type 2 Diabetic Mice via Inhibition of DPP-IV and Stimulation of GLP-1” (Foods, 2025).

The subject of one series is db/db mice. Nature of the series: Oral glucose tolerance test (OGTT) in db/db mice. It is filed as in vivo. The conditions noted are these: week 3, glucose 2 g/kg, 120 min, 1CBR 500 mg/kg/day, sitagliptin 20.5 mg/kg/day, p < 0.05.
In a further series the test system is plasma insulin. Nature of the series: Plasma insulin level in db/db mice (ELISA). It is filed as in vivo. Particulars: after 3-week treatment, 1CBR 500 mg/kg/day, sitagliptin 20.5 mg/kg/day, untreated group C 6.51. The protocol:
(§1) Between the ages of 6 and 8 weeks, the blood glucose concentrations in the mice were monitored weekly. Diabetes was determined in mice when the blood glucose levels surpassed 400 mg/dL after an OGTT test (oral glucose tolerance). The mice were randomly allocated to three groups, each consisting of 13 individuals. The experimental period lasted for 3 weeks. […] Mice were housed in groups of 3–4 per cage. The sample size was determined based on previous studies and ethical considerations (3Rs principle) to achieve adequate statistical power without excessive animal use. […] This dose was also within the effective range reported for other food-derived bioactive protein hydrolysates in rodent models.
(§2) At week 3, blood samples were obtained from all mice into EDTA-treated chilled tubes and then centrifuged at 3000× g for 15 min. The supernatant was kept on ice for up to 3 h for further analysis. Plasma insulin levels and DPP-IV activity were determined using an insulin ELISA kit (Mercodia AB, Uppsala, Sweden) and a DPP-IV assay kit (Enzo Inc., Farmingdale, NY, USA), respectively. Plasma total GLP-1 levels were measured using the glucagon-like peptide-1 (total) kit from RayBiotech Inc. (Norcross, GA, USA), while active GLP-1 levels were assessed with the active GLP-1 kit from Millipore Corp. (Billerica, MA, USA), each from a different supplier.
For orientation: An ELISA detects its analyte on a solid surface through an enzyme-linked reagent.

The test system of another series is active GLP-1. Description: Plasma active GLP-1 level in db/db mice. In kind it is in vivo. Particulars: after 3-week treatment, 1CBR 500 mg/kg/day, sitagliptin 20.5 mg/kg/day, group C 5.22. The protocol:
as §1, §2

The subject of another series is total GLP-1. Nature of the series: Plasma total GLP-1 level in db/db mice. In kind it is in vivo. The conditions noted are these: after 3-week treatment, 1CBR 500 mg/kg/day, sitagliptin 20.5 mg/kg/day. The protocol:
as §1, §2

In a further series the test system is NCI-H716 cells. Description: In vitro GLP-1 secretion in NCI-H716 cells. In kind it is cell-based, human. Particulars: NCI-H716 cells, 2.0, 2.5 and 3.0 mM, 3 h. The protocol:
(§3) NCI-H716 and STC-1 enteroendocrine cell lines are widely conducted to investigate the mechanisms of GLP-1 expression. The STC-1 and NCI-H716 cell lines in this study were sourced from Bioresource Collection and Research (BCRC, Hsinchu, Taiwan). STC-1 cells were seeded in 12-well plates at 2 × 10^6 cells/mL, while NCI-H716 cells were seeded in Matrigel-coated 12-well plates at 2 × 10^5 cells/mL. Upon reaching 85% confluence, the supernatants were replaced with HEPES buffer for STC-1 and RPMI-1640 buffer without FBS for NCI-H716. […] After incubating at 37 °C with 5% CO2 for 3 h, the supernatants were harvested and assessed for GLP-1 levels using the active glucagon-like peptide-1 kit from Millipore Corp. (Billerica, MA, USA).

The test system of another series is STC-1 cells. Nature of the series: In vitro GLP-1 secretion in STC-1 cells. The conditions noted are these: STC-1 cells, 2.0, 2.5 and 3.0 mM, 3 h. It is filed as cell-based. The protocol:
as §3

In another series the target is T1, DPP-IV (Sus scrofa, UniProt P22411).
T1 construct: purchased Sigma-Aldrich D7052; host or cells: porcine kidney (tissue-derived)
T1 sequence (P22411 whole entry): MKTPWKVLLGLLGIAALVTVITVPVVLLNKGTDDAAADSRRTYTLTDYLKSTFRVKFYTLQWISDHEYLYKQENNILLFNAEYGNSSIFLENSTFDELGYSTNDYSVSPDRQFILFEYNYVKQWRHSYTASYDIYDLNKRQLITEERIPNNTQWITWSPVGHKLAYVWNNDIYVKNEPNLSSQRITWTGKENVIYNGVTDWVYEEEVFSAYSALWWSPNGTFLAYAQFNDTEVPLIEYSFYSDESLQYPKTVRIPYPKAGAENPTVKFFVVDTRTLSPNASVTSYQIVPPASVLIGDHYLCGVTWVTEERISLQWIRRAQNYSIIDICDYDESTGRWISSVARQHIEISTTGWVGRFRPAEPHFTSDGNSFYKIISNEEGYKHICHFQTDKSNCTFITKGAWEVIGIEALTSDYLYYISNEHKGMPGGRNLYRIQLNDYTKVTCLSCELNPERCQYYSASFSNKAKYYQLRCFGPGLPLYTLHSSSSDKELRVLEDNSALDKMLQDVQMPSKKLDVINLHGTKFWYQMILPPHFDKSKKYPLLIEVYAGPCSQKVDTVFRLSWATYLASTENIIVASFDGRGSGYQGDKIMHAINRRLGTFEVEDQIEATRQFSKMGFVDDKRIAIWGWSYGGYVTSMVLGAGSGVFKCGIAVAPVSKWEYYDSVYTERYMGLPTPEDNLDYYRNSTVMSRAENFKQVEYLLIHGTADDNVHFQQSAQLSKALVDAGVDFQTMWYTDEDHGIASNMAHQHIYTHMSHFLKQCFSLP
Nature of the series: In vitro DPP-IV inhibition assay. In kind it is biochemical, porcine. The conditions noted are these: synthesized peptides, in vitro enzymatic assay. The source says:
Sodium caseinate was obtained from Gemfont Inc. (Taipei, Taiwan). Bromelain, derived from pineapple stem, was obtained from STBIO Media Inc. (New Taipei, Taiwan). Dipeptidyl peptidase-IV (DPP-IV; D7052, sourced from porcine kidney), Gly-Pro-p-nitroanilide, HEPES sodium salt (H3784), and RPMI-1640 medium (R8758) were obtained from Sigma-Aldrich (St. Louis, MO, USA). The remaining chemicals and reagents were of analytical grade and were available from commercial suppliers.
In this study, 1CBR was purified by RP-HPLC using a Model L-2130 HPLC system (Hitachi Ltd., Katsuda, Japan). Afterward, 2 mg of the lyophilized hydrolysate fraction was reconstituted in 1 mL of ddH2O, and 60 μL of the resulting solution was subjected to injection onto a ZORBAX Eclipse Plus C18 column (4.6 mm × 250 mm, Agilent Tech. Inc., Santa Clara, CA, USA) for analysis. A gradient of acetonitrile, ranging from 5% to 60% over 60 min, was applied in 0.1% TFA at 0.7 mL/min. Peptides were monitored at 220 nm. After collection, each fraction was lyophilized and stored in a desiccator for future use. The fractions were then re-dissolved in 100 mM Tris buffer (pH 7.0) to achieve a 1 mg/mL concentration and were evaluated for in vitro DPP-IV inhibitory activity. The assay for DPP-IV inhibition was conducted following the procedure outlined in our previous study.
The selected peptides were generated through Fmoc-based solid-phase peptide synthesis using an automated synthesizer (CS 136, CS Bio Co., San Carlos, CA, USA). Their structural integrity and purity were confirmed via RP-HPLC-MS/MS analysis. To assess their inhibitory potential against DPP-IV, the IC50 values were determined through in vitro enzymatic assays. […]

Details of series [1]: method as in PMID 29732892. Particulars: rats, single oral dose 100 mg/kg body weight; cited from earlier work.
Details of series [2]: species or system Sprague–Dawley rats. Particulars: rat, in vivo; for AR30 (absorption ratio at 30 min) / AR90 (absorption ratio at 90 min) / AUC / Cmax / Fractional absorption / Tmax / half-life: po, 16 mg/kg. From the text:
In this study, GPFPLPD and […] peptides were synthesized and prepared for the in vivo absorption study as outlined in Section 2.4. The experiment involved ten male Sprague–Dawley rats (LASCO, Taipei, Taiwan), each 6 weeks old and weighing between 230 and 250 g. Prior to the experiment, the rats were allowed a 7-day acclimatization period, during which they were fed a 5012-Rat Diet (LabDiet®, St. Louis, MO, USA), consisting of 60% carbohydrates, 13% fat, and 27% protein based on total caloric content. The rats were randomly assigned to two groups (5 rats per group) and orally administered a single dose of either GPFPLPD or […] peptide at 16 mg/kg body weight.
Overnight-fasted rats were administered the peptides, and blood samples were collected from the tail vein at 0, 30, 60, 90, and 180 min post-administration. To obtain plasma, the samples were centrifuged at 3000× g for 15 min at 4 °C. A 500 µL aliquot of plasma was then combined with an equal volume of acetonitrile, followed by additional centrifugation at 1200× g for 10 min at 4 °C to precipitate high-molecular-weight proteins. The resulting supernatant (20 µL) was analyzed via RP-HPLC under the conditions outlined in Section 2.4. Peptide concentrations were quantified using calibration curves from peptide standards prepared in 50% (v/v) acetonitrile (Figure S4). The estimated blood volume of male rats was 6.86 mL per 100 g of body weight.
The pharmacokinetic parameters, including the half-life (t1/2), area under the plasma drug concentration–time curve (AUC), time-to-peak concentration (Tmax), and peak concentration (Cmax), were directly determined and analyzed. The absorption ratio (ARt; %) was defined as the percentage of the administered peptide dose (16 mg/kg BW) present in plasma, calculated as the product of peptide concentration and blood volume at each time point. The AUC method was also employed to quantify peptide absorption. The fractional absorption (%) of orally administered peptides was calculated using the following formula [23]: Fractional absorption (%)=ln2/t1/2×calculated oral AUC×plasma volume/oral dose×100

A short description of series [3]: MALDI-TOF/TOF check of intact peptide in rat plasma. Particulars: 60 min post-administration, oral 16 mg/kg BW. It is filed as in vivo, Sprague–Dawley rats. The method, then: A 0.6 μL aliquot of peptide solution (1 mg/mL) was mixed with an equal volume of saturated α-cyano-4-hydroxycinnamic acid matrix and then air-dried on the target plate. The dried sample was subsequently analyzed using MALDI-TOF/TOF MS in positive ion reflection mode under a 20 kV accelerating voltage. Mass spectra were generated by averaging 200 laser shots within an m/z range of 200–2500 Da. Tandem mass spectrometry (MS/MS) was performed to determine peptide sequences, with data processed using BioTools software (Version 3.2, Bruker Daltonics, Billerica, MA, USA).
To verify that the peaks observed in the RP-HPLC chromatogram corresponded to the intact peptides GPFPLPD and […], plasma samples from rats with or without peptide administration were analyzed by MALDI-TOF/TOF, as described in Section 2.4.2.

Details of series [4]: method as in PMID 25387326. Particulars: adult Wistar rats, 40 mg/kg BW; cited from earlier work.
On the set-up of series [5]: method as in PMID 38581395. Particulars: rat model, cited from earlier work.

Entries after “also recorded” stand apart in the source; their conditions may differ. Like-named read-outs stand apart in the source and are kept apart here. No end group written: not given here.

`N[C@@H](CC(=O)N1CCn2c(nnc2C(F)(F)F)C1)Cc1cc(F)c(F)cc1F` [sitagliptin]: the “OGTT AUC compared to group C” value in the series with db/db mice is listed as “significantly lower AUC values”. In addition, the plasma insulin level in the series on plasma insulin is 11.31 µg/L. For the same molecule, in the series on active GLP-1, the “plasma active GLP-1 level” value stood at 12.29 pM. Besides, the “plasma total GLP-1 level” value in the series on total GLP-1 is “unchanged”. The “effect on GLP-1 secretion (in words)” value in the series with NCI-H716 cells and with STC-1 cells was “did not influence GLP-1 secretion; also recorded: failed to induce GLP-1 secretion” in each case.
As to GGKPSSMT, half-maximal inhibition on DPP-IV (IC50) was put at 839 µM.
The same measure, in the same setting: in the case of GGHLFFC [GGHLFFC] it was 642 µM.
For the molecule WDHHAPQLR [antioxidative peptide], in series [1], the bioavailability (as a rule, dose-corrected exposure relative to a reference, in per cent) was 3.56% and the elimination half-life is reported as 1.19 h.
In the case of GPFPLPD [GPFPLPD], at DPP-IV, the midpoint of inhibition, the IC50, lay at 99.1 µM. For the same molecule, in series [2], the oral bioavailability was found to be 11.28%; the “AR30 (absorption ratio at 30 min)” value is 10.21 ± 1.48%; the “AR90 (absorption ratio at 90 min)” value is reported as 6.52 ± 0.66%; the AUC (as a rule, the area under the concentration-time curve, a measure of exposure) was 40200 ng·h/mL. Besides, in series [2], the concentration peaked (Cmax) at 26100 ± 4120 ng/mL, the Fractional absorption is listed as 7.2%, the Tmax (commonly the time from dosing to the highest level) is 1 h and the half-life (usually the time in which the quantity being followed falls by half) was 1.65 h. In series [3], the “structural integrity in plasma (MALDI-TOF/TOF)” value is on record as “remained structurally intact”.
On to HLPLP, for which, in series [4], the Cmax – broadly, the highest concentration seen after dosing – was 20.1 ng/mL and the absolute bioavailability is 5.18%.
As for APDSGNFR, half-maximal inhibition against DPP-IV (IC50) required 73.1 µM. For the same molecule, in series [2], the oral bioavailability is 19.12%, the “AR30 (absorption ratio at 30 min)” value is 12.74 ± 2.17%, the “AR90 (absorption ratio at 90 min)” value was 12.40 ± 1.97% and the AUC is 66600 ng·h/mL. In series [2], the Cmax was 44600 ± 9330 ng/mL, the Fractional absorption worked out at 10.8%, the time of peak concentration (Tmax) is 1 h and the half-life is 1.82 h. Further, the “structural integrity in plasma (MALDI-TOF/TOF)” value in series [3] is given as “remained structurally intact”.
Take IRW: the elimination half-life in series [5] (intravenous injection) was 0.475 h; in series [5] (oral administration), 0.132 h. The bioavailability in series [5] is 11.7%.
